Measured values: ChEMBL document CHEMBL1158646, “Potential Antitumor Agents: A Cytotoxic Cardenolide From Coronilla varia” (1979)
≈ marks a conversion by molar mass, not a printed value. Calls of active or inactive are those of the source. The rule behind the calls is not given here.

Experiments:
[1] = Cytotoxicity against human 9KB cells; assay type: functional; settings: read-out: ED50 (the source's name)
P388 [2] = assay: Antitumor activity against mouse P388 cells in mouse assessed as median survival time at 8 mg/kg relative to control; assay type: functional, organism-based; set-up: dose 8 mg/kg
P388 [3] = assay: Antitumor activity against mouse P388 cells in mouse assessed as median survival time at 1.25 mg/kg relative to control; assay type: functional
Lewis lung carcinoma = assay: Cytotoxicity against mouse LLC cells; assay type: functional, cell-based
B16 = assay: Cytotoxicity against mouse B16 cells; assay type: functional, cell-based
L1210 = assay: Cytotoxicity against mouse L1210 cells; assay type: functional, cell-based

Compound	EC50 [1]	Activity (P388 [2])	T/C (P388 [3])	Activity (Lewis lung carcinoma)	Activity (B16)	Activity (L1210)
C[C@]12CC[C@H]3[C@@H](CCC4=C[C@@H](O[C@@H]5OC[C@@H](O)[C@H](O)[C@H]5O)CC[C@@]43C=O)[C@@]1(O)CC[C@@H]2C1=CC(=O)OC1 [DEGLUCOHYRCANOSIDE]	0.02 µg/mL (≈ 0.0386 µM)	inactive				
C[C@]12CC[C@H]3[C@@H](CCC4=C[C@@H](O[C@@H]5OC[C@@H](O[C@@H]6O[C@H](CO)[C@@H](O)[C@H](O)[C@H]6O)[C@H](O)[C@H]5O)CC[C@@]43C=O)[C@@]1(O)CC[C@@H]2C1=CC(=O)OC1 [HYRCANOSIDE]	0.1 µg/mL (≈ 0.147 µM)		133%	inactive	inactive	inactive
